Assays:
[1] = system: GeneBank No. 170665; assay: Gene expression analysis (oligonucleotide microarray) in rat primary nerve cells under endoplasmic reticulum stress; format: cell-based; conditions: standardized with the median (=1)
Protocol: Rat primary nerve cells prepared from TP-17 CD rats (Nippon Charles River) were suspended in B27-containing neurobasal medium (NB medium, GIBCO), then put at a density of 250,000 cells/well in a type I collagen-coated 24-well plate (SUMILON), and cultured for 3 days. (i) Tunicamycin (Tnc) was added at a final concentration of 100 nM to the cultured cells, (ii) thapsigargin (Thap) was added at a final concentration of 2 nM to the cultured cells, or (iii) after the medium was exchanged twice with glucose-free B27-containing DMEM medium, 2-deoxyglucose (2DG) was added at a concentration of 3 mM to the cultured cells. After 4, 8, and 24 hours, total RNA was extracted from the respective cells by using RNeasy Mini Kit (Qiagen) according to its instructions. As the control, the cells to which each medium was added in place of the above chemicals (Tnc, Thap and 2DG) (cells to which no chemical was added) were used. These were used as the material to conduct gene expression analysis using an oligonucleotide microarray (Rat Genome U34A, Affymetrix).
The experimental method was in accordance with instructions of Affymetrix (Expression analysis technical manual). As a result of comparison of gene expression profiles of the cells stimulated with each chemical and the cells to which no chemical was added, the expression of GeneBank No. 170665 was promoted by endoplasmic reticulum stress stimulation [the above (i), (ii) and (iii)] (Table 1).

[2] = system: GeneBank No. 170665; assay: Gene expression analysis (oligonucleotide microarray) in rat primary nerve cells stimulated with β-amyloid; format: cell-based; conditions: β-amyloid 25 nM, standardized with the median (=1)
Protocol: For the purpose of examining whether the expression of GeneBank No. 170665 whose expression was promoted by endoplasmic reticulum stress was influenced by β-amyloid stimulation, gene expression analysis was conducted using the cells stimulated with β-amyloid in the same manner as in Example 1.
Rat primary nerve cells prepared in the same manner as in Example 1 were suspended in N2-containing DMEM medium (GIBCO), then put at a density of 250,000 cells/well and cultured for 4 days. After culture, β-amyloid suspended at a final concentration of 25 nM in the above medium was added to the cells. After 4, 8, and 24 hours, total RNA was extracted from the cells and gene analysis was conducted in the same manner as in Example 1. As the control, the cells to which the above medium was added in place of β-amyloid were used. The expression of GeneBank No. 170665 was promoted in the cells stimulated with β-amyloid, as compared with the control (Table 2).

[3] = system: SK-N-AS cells; assay: DNA cleavage accompanying tunicamycin-induced cell-death (CELL DEATH DETECTION ELISA PLUS) in transformed cells; format: cell-based, human; conditions: SK-N-AS cells transformed with the C1 gene vs pcDNA3.1 control cells; tunicamycin for 1 or 2 days
Protocol: A plasmid comprising the nucleotide sequence represented by SEQ ID NO:2 was designated C1-pcDNA3.1/V5-His TOPO, and a transformant having the plasmid was designated Escherichia coli DH5α/C1-pcDNA3.1N5-His TOPO. This transformant was cultured in LB medium, and the vector was recovered by using QUAGEN plasmid midi kit (Qiagen). This C1 gene expression vector was transformed into SK-N-AS cells by using Nucleofector (AMAXA). As the control, pcDNA3.1 (Invitrogen) was transformed into SK-N-AS cells.
The respective transformed cells were put at a density of 7500 cells/well in a type I collagen-coated 96-well plate (IWAKI) and then cultured overnight, and after tunicamycin was added at various concentrations, the cells were cultured for 1 or 2 days to induce cell-death. After culture, DNA cleavage accompanying cell-death was detected by using CELL DEATH DETECTION ELISA^PLUS kit (Roche). The experimental method was in accordance with instructions attached to the kit.

[4] = system: IMR-32 cells; assay: Aβ40 and Aβ42 concentration in culture supernatant of transformed cells by ELISA; format: cell-based; conditions: IMR-32 cells transformed with C1 vs GFP control cells; 24 hours after medium exchange
Protocol: The C1 gene expression vector described in Example 4 was transformed into IMR-32 cells by using Nucleofector (AMAXA). As the control, a GFP gene expression vector (Wako) was transformed into other IMR-32 cells. The respective transformed cells were put at a density of 1,000,000 cells/well in a type I collagen-coated 24-well plate (IWAKI) and cultured for 16 hours. After the medium was exchanged with a new one, the cells were cultured for additional 24 hours, and the concentrations of Aβ40 and Aβ42 in the culture supernatant were measured respectively by ELISA (Biochemistry 34, 10272-10278, 1995).

O=CC[C@@H](O)[C@H](O)[C@H](O)CO [2DG, 2-deoxyglucose]
Gene expression level ([1]; 2DG 3 mM in glucose-free DMEM medium, after 4 hours): 16.71
Gene expression level ([1]; 2DG 3 mM in glucose-free DMEM medium, after 8 hours): 15.11
Gene expression level ([1]; 2DG 3 mM in glucose-free DMEM medium, after 24 hours): 14.55

C/C=C(/C)C(=O)O[C@H]1C(C)=C2[C@H]([C@@H]1OC(=O)CCCCCCC)[C@@](C)(OC(C)=O)C[C@H](OC(=O)CCC)[C@@]1(O)[C@H]2OC(=O)[C@@]1(C)O [thapsigargin]
Gene expression level ([1]; thapsigargin 2 nM, after 4 hours): 8.77
Gene expression level ([1]; thapsigargin 2 nM, after 8 hours): 9.65
Gene expression level ([1]; thapsigargin 2 nM, after 24 hours): 7.56

tunicamycin
Gene expression level ([1]; tunicamycin 100 nM, after 4 hours): 3.00
Gene expression level ([1]; tunicamycin 100 nM, after 8 hours): 2.81
Gene expression level ([1]; tunicamycin 100 nM, after 24 hours): 3.63

β-amyloid
Gene expression level ([2]; after 4 hours): 3.44
Gene expression level ([2]; after 8 hours): 6.99
Gene expression level ([2]; after 24 hours): 4.40

B1: C1: 264-amino-acid protein (SEQ ID NO: 1) encoded by SEQ ID NO:2; tested by transforming cells with C1 gene expression vector (protein, listed as Homo sapiens)
chain: MGGAQLELPSGARPGVCVRRSFRAHAGDQPRRPPGPIPVPGTMKQESAAPNTPPTSQSPTPSAQFPRNDGDPQALWIFGYGSLVWRPDFAYSDSRVGFVRGYSRRFWQGDTFHRGSDKMPGRVVTLLEDHEGCTWGVAYQVQGEQVSKALKYLNVREAVLGGYDTKEVTFYPQDAPDQPLKALAYVATPQNPGYLGPAPEEAIATQILACRGFSGHNLEYLLRLADFMQLCGPQAQDEHLAAIVDAVGTMLPCFCPTEQALALV
DNA cleavage (cell-death) [3]: promoted
Aβ40 concentration in culture supernatant [4]: reduced
Aβ42 concentration in culture supernatant [4]: reduced
